Results published in patent US20160201075A1, “REGULATOR OF ALGAL LIPID METABOLISM AND CELLULAR […] ITS APPLICATIONS” (Board of Trustees of Michigan State University, priority 2014, published 2016).

Tested on: C. reinhardtii
Assay: Growth in medium with 1 μM Rapamycin (time needed for division)
Type: cell-based, Chlamydomonas reinhardtii
Details: saturating concentration of Rapamycin (1 μM)
Text: FIGS. 3A-3D illustrates the growth of cht7—expressing cells affected by different treatments. FIG. 3A graphically illustrates growth of cht7 and parental (dw15) lines on nitrogen-replete medium (optical density (OD) at 550 nm). Doubling times are given in parentheses. The grey bar indicates the OD at which nitrogen-replete samples were taken for all experiments in this study. Averages of three biological replicates are given with standard deviations for all points being smaller than 3%. FIG. 3B graphically illustrates growth of dw15, cht7, and four independent complementation lines (C1-4) during nitrogen deprivation (−N) followed by nitrogen resupply (+N) measured at the times indicted. Insert, cultures at 24 h following nitrogen resupply. FIG. 3C graphically illustrates growth during phosphate deprivation (−P) followed by phosphate resupply (+P). FIG. 3D graphically illustrates growth in the medium with 1 μM Rapamycin (+R) followed by the removal of Rapamycin (−R). Cultures were diluted twice (a) with medium containing 1 μM Rapamycin to avoid reaching stationary phase.
Growth under different nitrogen and phosphate regimes and following Rapamycin treatment, plating and viability assays, as well as lipid assays were performed using established methods.
Growth of the cht7 mutant was normal in nitrogen-replete medium under standard conditions (FIG. 3A). […]

## CO[C@H]1C[C@@H]2CC[C@@H](C)[C@@](O)(O2)C(=O)C(=O)N2CCCC[C@H]2C(=O)O[C@H]([C@H](C)C[C@@H]2CC[C@@H](O)[C@H](OC)C2)CC(=O)[C@H](C)/C=C(\C)[C@@H](O)[C@@H](OC)C(=O)[C@H](C)C[C@H](C)/C=C/C=C/C=C/1C [Rapamycin]
cht7 mutant
  time needed for division: 30.1 h
Parental line (dw15)
  time needed for division: 23.9 h
